# Laboratory results published in article PMC3298469, “A selective and potent CXCR3 antagonist SCH 546738 attenuates the development of autoimmune diseases and delays graft rejection” (BMC Immunology, 2012).
# Tests used:
# Adrenergic α2A = Adrenergic α2A (Homo sapiens, UniProt P08913); experiment: GPCR counterscreen binding assay
# Protocol: (§1) SCH 546738 was tested at concentrations of 1-10 μM against a panel of 49 GPCR binding assays. Most of the assays were not affected by SCH 546738 (Table 2). […] In addition, SCH 546738 has a favourable pharmacokinetic profile in rodents. […] Therefore, SCH 546738 is suitable for in vivo preclinical studies.
# Adrenergic α2C = Adrenergic α2C (Homo sapiens, UniProt P18825); experiment: GPCR counterscreen binding assay
# Chain of Adrenergic α2C (P18825 whole entry): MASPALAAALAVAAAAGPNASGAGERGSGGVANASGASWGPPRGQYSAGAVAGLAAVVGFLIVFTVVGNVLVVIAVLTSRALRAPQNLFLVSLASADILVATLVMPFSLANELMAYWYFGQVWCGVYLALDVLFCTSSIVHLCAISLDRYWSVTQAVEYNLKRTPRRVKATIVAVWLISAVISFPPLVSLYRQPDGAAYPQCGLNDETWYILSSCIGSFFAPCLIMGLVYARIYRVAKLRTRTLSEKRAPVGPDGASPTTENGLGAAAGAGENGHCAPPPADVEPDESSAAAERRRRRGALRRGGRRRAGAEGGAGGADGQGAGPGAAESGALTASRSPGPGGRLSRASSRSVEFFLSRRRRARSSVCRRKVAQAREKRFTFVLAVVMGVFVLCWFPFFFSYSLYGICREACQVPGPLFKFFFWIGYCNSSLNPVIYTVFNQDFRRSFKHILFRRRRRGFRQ
# Protocol: as §1
# CCR7 [1] = molecular target: T1, CCR7 (Homo sapiens, UniProt P32248); experiment: GPCR counterscreen binding assay
# T1 sequence (P32248 25-378): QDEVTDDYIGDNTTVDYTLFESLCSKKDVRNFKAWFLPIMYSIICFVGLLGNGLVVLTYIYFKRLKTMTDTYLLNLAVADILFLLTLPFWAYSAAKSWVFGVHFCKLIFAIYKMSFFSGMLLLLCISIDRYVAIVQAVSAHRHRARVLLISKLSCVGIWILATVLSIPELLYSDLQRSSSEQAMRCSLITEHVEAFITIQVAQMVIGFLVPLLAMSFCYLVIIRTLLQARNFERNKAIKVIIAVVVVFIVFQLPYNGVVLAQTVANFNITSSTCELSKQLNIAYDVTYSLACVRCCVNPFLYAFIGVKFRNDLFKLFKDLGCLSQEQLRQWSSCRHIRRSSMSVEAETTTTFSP
# Protocol: as §1
# CXCR1 = CXCR1 (Homo sapiens, UniProt P25024); experiment: GPCR counterscreen binding assay
# Chain of CXCR1 (P25024 whole entry): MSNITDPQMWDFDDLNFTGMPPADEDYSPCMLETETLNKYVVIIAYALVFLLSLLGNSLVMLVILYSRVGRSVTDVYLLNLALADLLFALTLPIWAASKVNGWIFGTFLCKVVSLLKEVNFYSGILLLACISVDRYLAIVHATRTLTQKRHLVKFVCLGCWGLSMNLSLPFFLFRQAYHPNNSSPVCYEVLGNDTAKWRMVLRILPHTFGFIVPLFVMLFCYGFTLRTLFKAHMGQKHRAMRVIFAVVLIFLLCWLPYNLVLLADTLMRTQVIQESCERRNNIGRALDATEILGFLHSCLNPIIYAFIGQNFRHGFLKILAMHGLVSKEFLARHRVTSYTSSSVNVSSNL
# Protocol: as §1
# CXCR2 = CXCR2 (Homo sapiens, UniProt P25025); experiment: GPCR counterscreen binding assay
# Chain of CXCR2 (P25025 whole entry): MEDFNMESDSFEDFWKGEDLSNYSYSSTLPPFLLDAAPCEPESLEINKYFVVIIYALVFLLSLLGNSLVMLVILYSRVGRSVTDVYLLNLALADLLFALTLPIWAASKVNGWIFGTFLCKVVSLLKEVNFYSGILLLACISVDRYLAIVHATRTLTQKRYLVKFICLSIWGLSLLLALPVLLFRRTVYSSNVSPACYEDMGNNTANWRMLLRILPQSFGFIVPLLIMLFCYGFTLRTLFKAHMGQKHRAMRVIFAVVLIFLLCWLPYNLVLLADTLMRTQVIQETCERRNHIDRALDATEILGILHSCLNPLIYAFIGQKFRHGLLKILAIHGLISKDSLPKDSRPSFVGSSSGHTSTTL
# Protocol: as §1
# Dopamine D4.2 = Dopamine D4.2 (Homo sapiens, UniProt P21917, DEL265-296); experiment: GPCR counterscreen binding assay
# Protocol: as §1
# Kappa opiate = Kappa opiate (Homo sapiens, UniProt P41145); experiment: GPCR counterscreen binding assay
# Chain of Kappa opiate (P41145 whole entry): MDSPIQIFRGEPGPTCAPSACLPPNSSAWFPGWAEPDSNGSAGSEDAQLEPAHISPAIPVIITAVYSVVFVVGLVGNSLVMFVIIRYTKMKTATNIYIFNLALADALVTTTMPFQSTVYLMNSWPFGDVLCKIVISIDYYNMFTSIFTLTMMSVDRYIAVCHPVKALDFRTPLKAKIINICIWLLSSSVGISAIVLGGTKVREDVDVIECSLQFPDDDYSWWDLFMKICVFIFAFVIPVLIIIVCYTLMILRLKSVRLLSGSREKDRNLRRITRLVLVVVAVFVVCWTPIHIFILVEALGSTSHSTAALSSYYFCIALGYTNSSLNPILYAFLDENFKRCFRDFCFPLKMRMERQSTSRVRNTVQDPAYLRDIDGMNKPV
# Protocol: as §1
# MCHR1 = MCHR1 (Homo sapiens, UniProt Q99705); experiment: GPCR counterscreen binding assay
# Protocol: as §1
# MRGX1 = MRGX1 (Homo sapiens, UniProt Q96LB2); experiment: GPCR counterscreen binding assay
# Protocol: as §1
# Mu opiate = Mu opiate (Homo sapiens, UniProt P35372); experiment: GPCR counterscreen binding assay
# Chain of Mu opiate (P35372 whole entry): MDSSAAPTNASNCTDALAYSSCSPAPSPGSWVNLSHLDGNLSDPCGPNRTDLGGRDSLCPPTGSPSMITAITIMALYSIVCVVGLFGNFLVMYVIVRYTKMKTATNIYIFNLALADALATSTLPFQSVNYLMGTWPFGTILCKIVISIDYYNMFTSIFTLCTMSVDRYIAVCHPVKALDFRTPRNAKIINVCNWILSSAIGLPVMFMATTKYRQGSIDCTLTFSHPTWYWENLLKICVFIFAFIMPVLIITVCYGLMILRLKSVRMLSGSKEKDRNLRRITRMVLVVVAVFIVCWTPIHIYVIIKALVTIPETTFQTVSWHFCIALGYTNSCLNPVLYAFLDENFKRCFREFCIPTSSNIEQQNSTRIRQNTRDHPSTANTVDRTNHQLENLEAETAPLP
# Protocol: as §1
# Muscarinic M1 = Muscarinic M1 (Homo sapiens, UniProt P11229); experiment: GPCR counterscreen binding assay
# Chain of Muscarinic M1 (P11229 whole entry): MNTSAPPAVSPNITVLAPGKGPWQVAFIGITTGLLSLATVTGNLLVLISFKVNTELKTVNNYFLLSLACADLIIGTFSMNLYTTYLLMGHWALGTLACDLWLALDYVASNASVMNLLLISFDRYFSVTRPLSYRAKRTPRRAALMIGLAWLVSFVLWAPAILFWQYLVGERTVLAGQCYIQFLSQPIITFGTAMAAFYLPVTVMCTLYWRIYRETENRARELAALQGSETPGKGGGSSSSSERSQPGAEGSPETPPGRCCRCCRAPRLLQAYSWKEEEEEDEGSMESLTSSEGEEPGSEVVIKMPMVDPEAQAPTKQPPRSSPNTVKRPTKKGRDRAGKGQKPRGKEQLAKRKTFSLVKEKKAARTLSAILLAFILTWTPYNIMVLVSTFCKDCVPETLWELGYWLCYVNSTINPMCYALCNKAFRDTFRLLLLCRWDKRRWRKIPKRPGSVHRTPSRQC
# Protocol: as §1
# Muscarinic M4 = Muscarinic M4 (Homo sapiens, UniProt P08173); experiment: GPCR counterscreen binding assay
# Protocol: as §1
# Muscarinic M5 = Muscarinic M5 (Homo sapiens, UniProt P08912); experiment: GPCR counterscreen binding assay
# Chain of Muscarinic M5 (P08912 whole entry): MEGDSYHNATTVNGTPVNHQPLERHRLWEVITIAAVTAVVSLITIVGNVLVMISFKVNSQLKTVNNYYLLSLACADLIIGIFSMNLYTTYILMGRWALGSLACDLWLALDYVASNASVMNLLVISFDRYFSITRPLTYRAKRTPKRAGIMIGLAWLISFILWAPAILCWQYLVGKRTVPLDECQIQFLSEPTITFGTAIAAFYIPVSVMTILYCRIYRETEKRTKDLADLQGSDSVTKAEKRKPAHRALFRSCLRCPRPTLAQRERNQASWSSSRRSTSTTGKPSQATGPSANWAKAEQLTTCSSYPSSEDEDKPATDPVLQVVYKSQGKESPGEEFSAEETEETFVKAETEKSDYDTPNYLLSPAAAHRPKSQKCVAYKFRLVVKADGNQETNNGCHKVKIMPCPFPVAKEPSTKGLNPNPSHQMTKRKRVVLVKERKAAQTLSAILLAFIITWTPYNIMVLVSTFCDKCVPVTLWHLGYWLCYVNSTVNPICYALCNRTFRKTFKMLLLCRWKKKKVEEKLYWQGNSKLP
# Protocol: as §1
# Neuropeptide Y (Y2) = Neuropeptide Y (Y2) (Homo sapiens, UniProt P49146); experiment: GPCR counterscreen binding assay
# Chain of Neuropeptide Y (Y2) (P49146 whole entry): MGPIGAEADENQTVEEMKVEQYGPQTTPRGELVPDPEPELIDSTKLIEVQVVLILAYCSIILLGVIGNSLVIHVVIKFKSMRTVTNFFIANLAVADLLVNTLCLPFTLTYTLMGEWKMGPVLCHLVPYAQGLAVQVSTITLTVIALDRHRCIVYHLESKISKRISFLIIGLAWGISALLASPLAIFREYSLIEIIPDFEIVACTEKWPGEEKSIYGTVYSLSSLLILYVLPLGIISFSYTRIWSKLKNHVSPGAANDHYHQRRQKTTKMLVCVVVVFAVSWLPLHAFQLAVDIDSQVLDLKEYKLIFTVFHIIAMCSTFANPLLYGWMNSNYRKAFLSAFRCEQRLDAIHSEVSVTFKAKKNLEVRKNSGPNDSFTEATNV
# Protocol: as §1
# Neuropeptide Y (Y4) = Neuropeptide Y (Y4) (Homo sapiens, UniProt P50391); experiment: GPCR counterscreen binding assay
# Chain of Neuropeptide Y (Y4) (P50391 whole entry): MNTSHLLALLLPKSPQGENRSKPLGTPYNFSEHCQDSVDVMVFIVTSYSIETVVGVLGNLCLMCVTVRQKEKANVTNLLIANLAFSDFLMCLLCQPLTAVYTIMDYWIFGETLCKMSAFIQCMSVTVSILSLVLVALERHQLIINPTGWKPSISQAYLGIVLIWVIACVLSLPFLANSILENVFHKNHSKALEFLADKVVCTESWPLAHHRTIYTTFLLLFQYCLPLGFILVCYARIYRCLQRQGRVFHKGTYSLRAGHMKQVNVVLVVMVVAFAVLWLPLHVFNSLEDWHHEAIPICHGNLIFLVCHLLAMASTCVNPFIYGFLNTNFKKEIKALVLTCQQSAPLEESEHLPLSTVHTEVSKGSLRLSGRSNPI
# Protocol: as §1
# Serotonergic 5HT1A = Serotonergic 5HT1A (Homo sapiens, UniProt P08908); experiment: GPCR counterscreen binding assay
# Protocol: as §1
# Vasopressin (oxytocin) = Vasopressin (oxytocin) (Homo sapiens, UniProt P30559); experiment: GPCR counterscreen binding assay
# Chain of Vasopressin (oxytocin) (P30559 whole entry): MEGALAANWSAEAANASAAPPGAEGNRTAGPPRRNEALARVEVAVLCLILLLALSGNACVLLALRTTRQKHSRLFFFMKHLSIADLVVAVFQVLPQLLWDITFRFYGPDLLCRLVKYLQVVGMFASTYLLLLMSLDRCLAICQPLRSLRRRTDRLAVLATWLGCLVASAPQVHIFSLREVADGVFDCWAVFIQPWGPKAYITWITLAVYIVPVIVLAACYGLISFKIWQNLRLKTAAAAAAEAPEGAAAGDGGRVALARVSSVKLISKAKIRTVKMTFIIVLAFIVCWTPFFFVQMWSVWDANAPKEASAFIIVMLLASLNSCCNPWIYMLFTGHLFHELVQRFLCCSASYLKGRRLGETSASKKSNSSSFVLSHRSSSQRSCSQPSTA
# Protocol: as §1
# CCR7 [2] = molecular target: T1, CCR7; experiment: human activated T cell chemotaxis induced by CCL19; type: cell-based; parameters: endogenous in cells; conditions: 1, 10 or 100 nM compound
# Protocol: The preparation of human activated T cells was performed as described previously. Human peripheral blood lymphocytes were prepared by Ficoll-Hypaque centrifugation, depleted of monocytes, and stimulated for 2 days with 1 µg/ml PHA (Murex Diagnostics, Dartford, U.K.) and 100 U/ml IL-2 (Sigma, St. Louis, MO) in RPMI 1640 supplemented with 10% fetal bovine serum (FBS), 2 mM L-glutamine, 100 µg/ml streptomycin, 100 U/ml penecillin, 1% non-essential amino acids and 2 mM HEPES. Following stimulation, peripheral blood lymphocytes were cultured in above media containing 5% conditioned media (Sigma) for up to 15 days.
# Human activated T cell chemotaxis assays were performed using 96-well ChemoTx® microplates (Neuro Probe, Inc., Gaithersburg, MD) with a 3 µm filter as per manufacturers' instructions. Activated T cells were washed with RPMI medium twice, and then resuspended in the medium containing 20% FBS. 1.25 × 10^5 cells/reaction were mixed with indicated concentrations of the compound and placed on the filter. The compound and chemokines were mixed and placed in the bottom well of the ChemoTx system. […] The number of migrated cells was measured using the Cell Titer Glo Luminescent Assay from Promega (Madison, WI) as per vendor's instructions. Chemotaxis is expressed as a chemotactic index, which is a ratio versus the one without chemokines (spontaneous migration). […]
# Chain of Adrenergic α2A (P08913 whole entry): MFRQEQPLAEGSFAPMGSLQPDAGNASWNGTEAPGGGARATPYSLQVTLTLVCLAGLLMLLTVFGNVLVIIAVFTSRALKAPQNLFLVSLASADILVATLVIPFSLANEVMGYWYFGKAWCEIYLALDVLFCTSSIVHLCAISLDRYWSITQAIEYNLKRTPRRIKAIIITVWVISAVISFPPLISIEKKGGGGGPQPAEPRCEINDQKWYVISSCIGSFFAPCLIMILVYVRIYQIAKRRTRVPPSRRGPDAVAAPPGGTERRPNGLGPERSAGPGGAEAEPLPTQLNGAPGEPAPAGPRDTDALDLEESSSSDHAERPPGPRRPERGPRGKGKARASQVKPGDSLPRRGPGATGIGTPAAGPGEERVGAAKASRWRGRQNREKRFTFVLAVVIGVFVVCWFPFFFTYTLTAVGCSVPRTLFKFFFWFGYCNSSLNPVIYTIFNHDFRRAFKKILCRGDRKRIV
smiles,measurement,setting,value
CC[C@H]1CN(c2nc(N)c(C(N)=O)nc2Cl)CCN1C1CCN(Cc2ccc(Cl)cc2)CC1 [SCH 546738],inhibition at 1 µM,Adrenergic α2A,45%
same,inhibition at 1 µM,Adrenergic α2C,76%
same,inhibition at 10 µM,CCR7 [1],0%
same,inhibition at 10 µM,CXCR1,13%
same,inhibition at 10 µM,CXCR2,20%
same,inhibition at 10 µM,Dopamine D4.2,18%
same,inhibition at 4 µM,Kappa opiate,7%
same,inhibition at 10 µM,MCHR1,0%
same,inhibition at 4 µM,MRGX1,1%
same,inhibition at 4 µM,Mu opiate,22%
same,inhibition at 4 µM,Muscarinic M1,22%
same,inhibition at 4 µM,Muscarinic M4,30%
same,inhibition at 4 µM,Muscarinic M5,28%
same,inhibition at 4 µM,Neuropeptide Y (Y2),-9%
same,inhibition at 4 µM,Neuropeptide Y (Y4),-2%
same,inhibition at 4 µM,Serotonergic 5HT1A,20%
same,inhibition at 4 µM,Vasopressin (oxytocin),12%
same,effect on T cell chemotaxis induced by the CCR7 ligand CCL19,CCR7 [2],did not affect
